Key:
[1] = test system: MCI; details: treatment of MCI; cited from earlier work
[2] = test system: patients with aMCI or mild AD; experiment: Side effects, Udvalg for Kliniske Undersogelser Side-effects Rating Scale, in 24-week trial; type: in vivo, human
Description: Systemic side effects of treatments were evaluated by means of physical and neurological examinations and laboratory tests including CBC and biochemistry and reviewed by applying the Udvalg for Kliniske Undersogelser Side-effects Rating Scale at the baseline and weeks 8, 16, and 24.

[3] = Brain mass by magnetic resonance imaging study; type: in vivo
[4] = test system: patients with schizophrenia; details: 1000 mg/day, cited from earlier work
[5] = test system: NMDAR models; details: preclinical studies; cited from earlier work
[6] = test system: glial cells; details: preclinical studies; cited from earlier work
[7] = test system: patients with aMCI or mild AD; experiment: CIBIC-plus in 24-week trial
[8] = test system: patients with aMCI or mild AD; experiment: ADAS-cog in 24-week randomized double-blind placebo-controlled trial; details: for ADAS-cog score, mean difference from baseline: all subjects
[9] = test system: patients with aMCI or mild AD; experiment: Additional cognition composite (speed of processing, working memory, verbal learning and memory) in 24-week trial
[10] = test system: healthy humans; details: cited from earlier work
[11] = test system: AD patients; details: some clinical studies; cited from earlier work
[12] = test system: MCI and mild AD; details: cited from earlier work
[13] = both in vitro and in vivo studies; cited from earlier work
[14] = test system: neuron death; details: cited from earlier work

With vitamin E as the compound, how does the Cognitive enhancing effect [1] read?
The Cognitive enhancing effect was “failed to show convincing evidence”.

For NC(=O)CN1CCCC1=O [piracetam, reference compound], which Cognitive enhancing effect [1] is on record?
Its Cognitive enhancing effect is “failed to show convincing evidence”.

With omega-3 fatty acid as the compound, how does the Cognitive enhancing effect [1] read?
Its Cognitive enhancing effect is “failed to show convincing evidence”.

What does the source list for O=C([O-])c1ccccc1.[Na+] [sodium benzoate]?
Tolerability ([2]; 24-week treatment): well-tolerated; Reported side effects on Udvalg for Kliniske Undersogelser Side-effects Rating Scale ([2]; all visits): no reported side effect; Brain mass [3]: can increase the brain mass; Side effects in earlier schizophrenia study ([4]; chronic schizophrenia): without obvious side effects; Neurocognitive function ([4]; patients with schizophrenia): beneficial; Effect in NMDAR models such as pain relief [5]: effective; Cell death in glial cells [6]: partially prevented cell death; CIBIC-plus vs placebo, subgroup ([7]; CDR 1 subgroup, week 24 and endpoint (p=.040, p=.018)): greater improvement than placebo therapy; CIBIC-plus score, subgroup ([7]; aMCI (CDR .5) subgroup): did no improve; CIBIC-plus effect size vs placebo ([7]; at endpoint): .73; CIBIC-plus score vs placebo ([7]; week 16 (p=.015), week 24 (p=.016), endpoint (p=.012), all subjects): greater improvement; ADAS-cog vs placebo, subgroup ([8]; CDR 1 subgroup, weeks 16 and 24 and endpoint (p=0151, p=.0387, p=.0092)): greater improvement than placebo therapy; ADAS-cog vs placebo, subgroup ([8]; CDR .5 subgroup, throughout the study (p>.05)): not superior to the placebo therapy; ADAS-cog effect size (Cohen's d) vs placebo ([8]; at the end of the study): .86; ADAS-cog score, mean difference from baseline ([8]; endpoint, p=.0031 vs placebo): 5.9; ADAS-cog score, mean difference from baseline ([8]; week 8, 250-750 mg/day, p=.3730 vs placebo): 3.8; ADAS-cog score, mean difference from baseline ([8]; week 16, p=.0021 vs placebo): 5.4; ADAS-cog score, mean difference from baseline ([8]; week 24, p=.0116 vs placebo): 5.9; Additional cognition composite vs placebo, subgroup ([9]; CDR 1 subgroup, p=.041): better efficacy; Additional cognition composite vs placebo, subgroup ([9]; CDR .5 subgroup, p=.063): borderline significance; Additional cognition composite effect size vs placebo ([9]; endpoint): .78; Additional cognition composite vs placebo ([9]; endpoint, all subjects, p=.007): better than placebo

For CNC1(c2ccccc2Cl)CCCCC1=O (centres unmarked) [Ketamine], which “Spatial learning and verbal information ability” value [10] is on record?
Its value is “impaired”.

Which “Score on the cognitive subscale of the Alzheimer's Disease Assessment Scale (ADAS-cog)” value [11] does the source give for N[C@@H]1CONC1=O [D-cycloserine] here?
The value was “improve their score”.

For CC12CC3CC(C)(C1)CC(N)(C3)C2 [Memantine], which “Efficacy in treating MCI (British Association for Psychopharmacology consensus statement)” value ([12]; MCI) is on record?
The value was “neither AChEIs nor memantine is effective”.

What about the “Efficacy at the early phase, including MCI and mild AD” value ([12]; human, in vivo) of the same compound?
Its value is “limited efficacy”.

For Nc1nc2ncc(CNc3ccc(C(=O)N[C@@H](CCC(=O)O)C(=O)O)cc3)nc2c(=O)[nH]1 [folic acid], which Cognitive enhancing effect [1] is on record?
Its Cognitive enhancing effect is “failed to show convincing evidence”.

With C[C@]12N[C@H](Cc3ccccc31)c1ccccc12 [MK-801] as the compound, how does the Apoptosis and neurodegeneration [13] read?
The Apoptosis and neurodegeneration was “induce apoptosis and neurodegeneration”.

With N[C@H](CO)C(=O)O [D-serine] as the compound, how does the “Extent of neuron death” value [14] read?
Its value is “significantly decreases”.
